Measurements from patent publication US10106510B2, “Substituted isoxazoles for treating cancer” (EPIZYME, INC., priority 2014, dated 2018).

The molecules below were run against SMYD3 (Homo sapiens (Human), UniProt Q9H7B4) (assay: SMYD3 biochemical assay (SMYD3 enzyme assay on MEKK2 protein substrate, scintillation proximity assay)). Details: 3H-SAM, SPA, IC50 values are an average of n = 1 to n = 50, read-out: SMYD3 Biochem IC50.
Chain of SMYD3 (Q9H7B4 whole entry): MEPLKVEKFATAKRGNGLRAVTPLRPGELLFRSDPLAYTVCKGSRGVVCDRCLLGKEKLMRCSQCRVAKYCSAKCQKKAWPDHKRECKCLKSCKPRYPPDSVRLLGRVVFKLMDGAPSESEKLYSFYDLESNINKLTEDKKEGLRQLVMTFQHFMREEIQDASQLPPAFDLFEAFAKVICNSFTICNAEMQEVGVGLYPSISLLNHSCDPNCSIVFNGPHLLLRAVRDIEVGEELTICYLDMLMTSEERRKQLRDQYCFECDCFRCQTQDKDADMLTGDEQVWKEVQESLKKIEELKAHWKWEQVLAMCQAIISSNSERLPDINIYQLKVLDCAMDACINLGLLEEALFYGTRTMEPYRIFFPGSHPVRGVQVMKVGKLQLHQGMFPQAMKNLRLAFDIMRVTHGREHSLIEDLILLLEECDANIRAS
Text: S-adenosylmethionine (SAM), S-adenosylhomocysteine (SAH), Tris, Tween20, dimethylsulfoxide (DMSO), bovine skin gelatin (BSG), and Tris(2-carboxyethyl)phosphine hydrochloride solution (TCEP) were purchased from Sigma-Aldrich at the highest level of purity possible. ^3H-SAM was purchase from American Radiolabeled Chemicals with a specific activity of 80 Ci/mmol. 384-well opaque white OptiPlates and SPA beads (Perkin Elmer, catalog # RPNQ0013) were purchased from PerkinElmer.
N-terminally GST-tagged MEKK2 (MAP3K2) protein corresponding to reference sequence AAF63496.3 was purchased from Life Technologies (catalog # PV4010). […] Protein identity was confirmed by MS/MS analysis after proteolytic digestion. The protein sequence used was:
Full-length human SMYD3 isoform 1 (BAB86333) was inserted into a modified pET21b plasmid containing a His6 tag and TEV and SUMO cleavage sites. Because two common variants of SMYD3 exist in the population, site directed mutagenesis was subsequently performed to change amino acid 13 from an asparagine to a lysine, resulting in plasmid pEPZ533.
E. coli (BL21 codonplus RIL strain, Stratagene) were transformed with plasmid pEPZ553 by mixing competent cells and plasmid DNA and incubating on ice for 30minutes followed by heat shock at 42° C. for 1 minute and cooling on ice for 2 minutes. Transformed cells were grown and selected on LB agar with 100 μg/mL ampicillin and 17 μg/mL chloramphenicol at 37° C. overnight. A single clone was used to inoculate 200 mL of LB medium with 100 μg/mL ampicillin and 17 μg/mL chloramphenicol and incubated at 37° C. on an orbital shaker at 180 rpm. Once in log growth, the culture was diluted 1:100 into 2 L of LB medium and grown until OD600 was about 0.3 after which the culture was incubated at 15° C. and 160 rpm. Once OD600 reached about 0.4, IPTG was added to a final concentration of 0.1 mM and the cells were grown overnight at 15° C. and 160 rpm. Cells were harvested by centrifugation at 8000 rpm, for 4 minutes at 4° C. and stored at −80° C. for purification.
The column was washed with Buffer B (Buffer A plus 20 mM imidazole) and His-tagged SMYD3 was eluted with Buffer C (Buffer A plus 300 mM imidazole). The His tag, TEV and SUMO cleavage sites were removed generating native SMYD3 by addition of ULP1 protein at a ratio of 1:200 (ULP1:SMYD3). Imidazole was removed by dialysis overnight in Buffer A. The dialyzed solution was applied to a second Nickel column and the native SMYD3 protein was collected from the column flow-through. The flow-through was dialyzed in Buffer D (25 mM Tris, 5% glycerol, 5 mM β-mercaptoethanol, 50 mM NaCl, pH7.8) and ULP1 was removed using a Q sepharose fast flow column.
General Procedure for SMYD3 Enzyme Assays on MEKK2 Protein Substrate
The assays were all performed in a buffer consisting of 25 mM Tris-Cl pH 8.0, 1 mM TCEP, 0.005% BSG, and 0.005% Tween 20, prepared on the day of use. Compounds in 100% DMSO (1 ul) were spotted into a 384-well white opaque OptiPlate using a Bravo automated liquid handling platform outfitted with a 384-channel head (Agilent Technologies). DMSO (1 ul) was added to Columns 11, 12, 23, 24, rows A-H for the maximum signal control and 1 ul of SAH, a known product and inhibitor of SMYD3, was added to columns 11, 12, 23, 24, rows I-P for the minimum signal control. A cocktail (40 ul) containing the SMYD3 enzyme was added by Multidrop Combi (Thermo-Fisher). The compounds were allowed to incubate with SMYD3 for 30 min at room temperature, then a cocktail (10 ul) containing SAM and MEKK2 was added to initiate the reaction (final volume=51 ul).
`COCCN(C(=O)c1cc(C2CC2)on1)[C@H]1CC[C@H](NC(=O)C[C@@H](C)N)CC1` [compound 40, N-((1R,4r)-4-((R)-3-aminobutanamido)cyclohexyl)-5-cyclopropyl-N-(2-methoxyethyl)isoxazole-3-carboxamide] was tested, and the IC50 was 9.69 µM.
Work on `C[C@@H](N)CC(=O)N[C@H]1CC[C@H](N(CCc2ccccc2)C(=O)c2cc(C3CC3)on2)CC1` [compound 41, N-((1R,4r)-4-((R)-3-aminobutanamido)cyclohexyl)-5-cyclopropyl-N-phenethylisoxazole-3-carboxamide] yielded an IC50 of 5.71 µM.
For `NCCC(=O)N[C@H]1CC[C@H](N(CCc2ccccc2)C(=O)c2cc(C3CC3)on2)CC1` [compound 42, N-((1r,4r)-4-(3-aminopropanamido)cyclohexyl)-5-cyclopropyl-N-phenethylisoxazole-3-carboxamide], the IC50 was 10.8 µM.
In the case of `CC(C)CN(C(=O)c1cc(C2CC2)on1)[C@H]1CC[C@H](NC(=O)CCN)CC1` [compound 43, N-((1r,4r)-4-(3-aminopropanamido)cyclohcxyl)-5-cyclopropyl-N-isobutylisoxazole-3-carboxamide], the IC50 is reported as 4.49 µM.
`COCCN(C(=O)c1cc(C2CC2)on1)[C@H]1CC[C@H](NC(=O)CCN)CC1` [compound 44, N-((1r,4r)-4-(3-aminopropanamido)cyclohexyl)-5-cyclopropyl-N-(2-methoxyethyl)isoxazole-3-carboxamide] was tested, and the IC50 was 16.4 µM.
For `C[C@@H](N)CC(=O)N[C@H]1CC[C@H](N(Cc2ccccc2)C(=O)c2cc(C3CC3)on2)CC1` [compound 45, N-((1R,4r)-4-((R)-3-aminobutanamido)cyclohexyl)-N-benzyl-5-cyclopropylisoxazole-3-carboxamide], the IC50 was 8.22 µM.
`NCCC(=O)N[C@H]1CC[C@H](N(Cc2ccccc2)C(=O)c2cc(C3CC3)on2)CC1` [compound 46, N-((1r,4r)-4-(3-aminopropanamido)cyclohexyl)-N-benzyl-5-cyclopropylisoxazole-3-carboxamide] was tested, and the IC50 was 4.34 µM.
Molecule `CC(C)CN(C(=O)c1cc(C2CC2)on1)[C@H]1CC[C@H](NC(=O)C[C@@H](C)N)CC1` [compound 47, N-((1R,4r)-4-((R)-3-aminobutanamido)cyclohexyl)-5-cyclopropyl-N-isobutylisoxazole-3-carboxamide] has an IC50 of 3.12 µM.
In the case of `CC(C)CN(C(=O)c1cc(C2CC2)on1)[C@H]1CC[C@H](NC(=O)C[C@H](C)N)CC1` [compound 48, N-((1S,4r)-4-((S)-3-aminobutanamido)cyclohexyl)-5-cyclopropyl-N-isobutylisoxazole-3-carboxamide], the IC50 is reported as 3.8 µM.
`COCCN(C(=O)c1cc(C2CC2)on1)[C@H]1CC[C@H](NC(=O)C[C@H](C)N)CC1` [compound 49, N-((1S,4r)-4-((S)-3-aminobutanamido)cyclohexyl)-5-cyclopropyl-N-(2-methoxyethyl)isoxazole-3-carboxamide] was tested, and the IC50 was 19 µM.
With `C[C@@H](N)CC(=O)N[C@H]1CC[C@H](N(CCO)C(=O)c2cc(C3CC3)on2)CC1` [compound 50, N-((1R,4r)-4-((R)-3-aminobutanamido)cyclohexyl)-5-cyclopropyl-N-(2-hydroxyethyl)isoxazole-3-carboxamide] the IC50 was 14.5 µM.
With `C[C@H](N)CC(=O)N[C@H]1CC[C@H](N(CCO)C(=O)c2cc(C3CC3)on2)CC1` [compound 51, N-((1S,4r)-4-((S)-3-aminobutanamido)cyclohexyl)-5-cyclopropyl-N-(2-hydroxyethyl)isoxazole-3-carboxamide] the IC50 was 13.8 µM.
`NCCC(=O)N[C@H]1CC[C@H](N(CCO)C(=O)c2cc(C3CC3)on2)CC1` [compound 52, N-((1r,4r)-4-(3-aminopropanamido)cyclohexyl)-5-cyclopropyl-N-(2-hydroxyethyl)isoxazole-3-carboxamide] was tested, and the IC50 was 16.8 µM.
For `C[C@H](N)CC(=O)N[C@H]1CC[C@H](N(Cc2ccccc2)C(=O)c2cc(C3CC3)on2)CC1` [compound 53, N-((1S,4r)-4-((S)-3-aminobutanamido)cyclohexyl)-N-benzyl-5-cyclopropylisoxazole-3-carboxamide], the IC50 was 19.7 µM.
Molecule `C[C@H](N)CC(=O)N[C@H]1CC[C@H](N(CCc2ccccc2)C(=O)c2cc(C3CC3)on2)CC1` [compound 54, N-((1S,4r)-4-((S)-3-aminobutanamido)cyclohexyl)-5-cyclopropyl-N-phenethylisoxazole-3-carboxamide] has an IC50 of 11.6 µM.
Work on `C[C@@H](N)CC(=O)N[C@H]1CC[C@@H](N(C)C(=O)c2cc(C3CC3)on2)CC1` [compound 55, N-((1S,4s)-4-((R)-3-aminobutanamido)cyclohexyl)-5-cyclopropyl-N-methylisoxazole-3-carboxamide] yielded an IC50 of 24.4 µM.
`C[C@@H](N)CC(=O)N[C@H]1CC[C@H](N(C)C(=O)c2cc(C3CC3)on2)CC1` [compound 56, N-((1R,4r)-4-((R)-3-aminobutanamido)cyclohexyl)-5-cyclopropyl-N-methylisoxazole-3-carboxamide] gave an IC50 of 9.28 µM.
Molecule `C[C@H](N)CC(=O)N[C@H]1CC[C@@H](N(C)C(=O)c2cc(C3CC3)on2)CC1` [compound 57, N-((1R,4s)-4-((S)-3-aminobutanamido)cyclohexyl)-5-cyclopropyl-N-methylisoxazole-3-carboxamide] has an IC50 of 25.8 µM.
With `C[C@H](N)CC(=O)N[C@H]1CC[C@H](N(C)C(=O)c2cc(C3CC3)on2)CC1` [compound 58, N-((1S,4r)-4-((S)-3-aminobutanamido)cyclohexyl)-5-cyclopropyl-N-methylisoxazole-3-carboxamide] the IC50 was 6.11 µM.
In the case of `CN(C(=O)c1cc(C2CC2)on1)[C@H]1CC[C@@H](NC(=O)CCN)CC1` [compound 59, N-((1s,4s)-4-(3-aminopropanamido)cyclohexyl)-5-cyclopropyl-N-methylisoxazole-3-carboxamide], the IC50 is reported as 36.6 µM.
In the case of `CN(C(=O)c1cc(C2CC2)on1)[C@H]1CC[C@H](NC(=O)CCN)CC1` [compound 60, N-((1r,4r)-4-(3-aminopropanamido)cyclohexyl)-5-cyclopropyl-N-methylisoxazole-3-carboxamide], the IC50 is reported as 5.29 µM.
